Reference: PubChem BioAssay (NCI)
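Tested at 5 concentrations; 48 h exposure; 96-well plates; endpoints linearly interpolated, else capped at highest concentration. TGI marks complete inhibition of growth.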

Columns and labels:
Experiment in all cases: NCI-60 cell line screen, 48 h
[1] = test system: UO-31 renal
[2] = test system: A549 NSCLC
[3] = test system: NCI-H226 lung
[4] = test system: K-562 leukemia
[5] = test system: KM12 colon
[6] = test system: HL-60(TB) leukemia
[7] = test system: UACC-257 melanoma
[8] = test system: OVCAR-5 ovarian
[9] = test system: OVCAR-3 ovarian
[10] = test system: OVCAR-4 ovarian
[11] = test system: SK-OV-3 ovarian
[12] = test system: HT29 colon
[13] = test system: KM20L2 colon
[14] = test system: M19-MEL melanoma
[15] = test system: DMS 273 small cell lung
[16] = test system: DLD-1 colon
[17] = test system: HCT-15 colon
[18] = test system: SF-268 CNS
[19] = test system: IGROV1 ovarian
[20] = test system: SNB-75 CNS
[21] = test system: HOP-18 NSCLC
[22] = test system: CAKI-1 renal
[23] = test system: SF-295 CNS
[24] = test system: NCI-H522 lung
[25] = test system: EKVX NSCLC
[26] = test system: SK-MEL-2 melanoma
[27] = test system: HCT-116 colon
[28] = test system: ACHN renal
[29] = test system: XF 498 CNS
[30] = test system: NCI-H23 lung
[31] = test system: TK-10 renal
[32] = test system: SK-MEL-5 melanoma
[33] = test system: SN12C renal
[34] = test system: NCI-H460 lung
[35] = test system: SK-MEL-28 melanoma
[36] = test system: MOLT-4 leukemia
[37] = test system: OVCAR-8 ovarian
[38] = test system: LOX IMVI melanoma
[39] = test system: LXFL 529 NSCLC
[40] = test system: SNB-78 CNS
[41] = test system: SF-539 CNS
[42] = test system: DMS 114 small cell lung
[43] = test system: U251 CNS
[44] = test system: CCRF-CEM leukemia
[45] = test system: MALME-3M melanoma
[46] = test system: UACC-62 melanoma
[47] = test system: RXF 393 renal
[48] = test system: SW-620 colon

**Q.** `COc1ccc2nc3cc(Cl)ccc3c(NCCCN(CCCl)CCCl)c2c1` was tested. Which TGI [1] did it give?
**A.** Its TGI is 1.02 µM.

**Q.** What about the TGI [2] of the same compound?
**A.** The TGI was 0.664 µM.

**Q.** What about the TGI [3] of the same compound?
**A.** Its TGI is 0.311 µM.

**Q.** What about the TGI [4] of the same compound?
**A.** Its TGI is 0.154 µM.

**Q.** What about the TGI [5] of the same compound?
**A.** Its TGI is 0.395 µM.

**Q.** What about the TGI [6] of the same compound?
**A.** Its TGI is 0.0135 µM.

**Q.** What about the TGI [7] of the same compound?
**A.** The TGI was greater than 100 µM.

**Q.** What about the TGI [8] of the same compound?
**A.** Its TGI is 0.31 µM.

**Q.** And the TGI [9]?
**A.** Its TGI is 0.295 µM.

**Q.** What about the TGI [10] of the same compound?
**A.** The TGI was 0.232 µM.

**Q.** And the TGI [11]?
**A.** The TGI was 1.12 µM.

**Q.** And the TGI [12]?
**A.** Its TGI is 0.333 µM.

**Q.** And the TGI [13]?
**A.** Its TGI is greater than 100 µM.

**Q.** What about the TGI [14] of the same compound?
**A.** The TGI was 0.846 µM.

**Q.** What about the TGI [15] of the same compound?
**A.** Its TGI is 1.03 µM.

**Q.** And the TGI [16]?
**A.** The TGI was greater than 100 µM.

**Q.** What about the TGI [17] of the same compound?
**A.** Its TGI is 1.13 µM.

**Q.** And the TGI [18]?
**A.** Its TGI is 0.3 µM.

**Q.** And the TGI [19]?
**A.** Its TGI is 0.479 µM.

**Q.** What about the TGI [20] of the same compound?
**A.** The TGI was 0.407 µM.

**Q.** What about the TGI [21] of the same compound?
**A.** The TGI was 9.4 µM.

**Q.** What about the TGI [22] of the same compound?
**A.** The TGI was 0.123 µM.

**Q.** What about the TGI [23] of the same compound?
**A.** Its TGI is 0.505 µM.

**Q.** And the TGI [24]?
**A.** Its TGI is 0.163 µM.

**Q.** And the TGI [25]?
**A.** The TGI was 0.539 µM.

**Q.** And the TGI [26]?
**A.** Its TGI is 0.437 µM.

**Q.** `NCc1ccccc1C1CSCSC1` was tested. Which TGI [27] did it give?
**A.** The TGI was greater than 100 µM.

**Q.** What about the TGI [1] of the same compound?
**A.** Its TGI is greater than 100 µM.

**Q.** What about the TGI [2] of the same compound?
**A.** Its TGI is greater than 100 µM.

**Q.** What about the TGI [3] of the same compound?
**A.** The TGI was greater than 100 µM.

**Q.** And the TGI [4]?
**A.** Its TGI is greater than 100 µM.

**Q.** And the TGI [28]?
**A.** The TGI was greater than 100 µM.

**Q.** And the TGI [5]?
**A.** Its TGI is greater than 100 µM.

**Q.** What about the TGI [6] of the same compound?
**A.** Its TGI is greater than 100 µM.

**Q.** And the TGI [7]?
**A.** The TGI was greater than 100 µM.

**Q.** What about the TGI [29] of the same compound?
**A.** The TGI was greater than 100 µM.

**Q.** And the TGI [30]?
**A.** The TGI was greater than 100 µM.

**Q.** And the TGI [31]?
**A.** The TGI was greater than 100 µM.

**Q.** And the TGI [32]?
**A.** The TGI was greater than 100 µM.

**Q.** And the TGI [9]?
**A.** Its TGI is greater than 100 µM.

**Q.** What about the TGI [10] of the same compound?
**A.** The TGI was greater than 100 µM.

**Q.** What about the TGI [11] of the same compound?
**A.** Its TGI is greater than 100 µM.

**Q.** And the TGI [33]?
**A.** The TGI was greater than 100 µM.

**Q.** And the TGI [12]?
**A.** The TGI was greater than 100 µM.

**Q.** And the TGI [34]?
**A.** Its TGI is greater than 100 µM.

**Q.** And the TGI [14]?
**A.** Its TGI is greater than 100 µM.

**Q.** What about the TGI [35] of the same compound?
**A.** Its TGI is greater than 100 µM.

**Q.** What about the TGI [15] of the same compound?
**A.** The TGI was greater than 100 µM.

**Q.** What about the TGI [16] of the same compound?
**A.** Its TGI is greater than 100 µM.

**Q.** What about the TGI [36] of the same compound?
**A.** Its TGI is greater than 100 µM.

**Q.** What about the TGI [37] of the same compound?
**A.** Its TGI is greater than 100 µM.

**Q.** What about the TGI [38] of the same compound?
**A.** The TGI was greater than 100 µM.

**Q.** What about the TGI [39] of the same compound?
**A.** Its TGI is greater than 100 µM.

**Q.** And the TGI [40]?
**A.** The TGI was greater than 100 µM.

**Q.** And the TGI [41]?
**A.** Its TGI is greater than 100 µM.

**Q.** What about the TGI [17] of the same compound?
**A.** The TGI was greater than 100 µM.

**Q.** And the TGI [18]?
**A.** Its TGI is greater than 100 µM.

**Q.** And the TGI [42]?
**A.** Its TGI is greater than 100 µM.

**Q.** And the TGI [43]?
**A.** Its TGI is greater than 100 µM.

**Q.** And the TGI [20]?
**A.** The TGI was greater than 100 µM.

**Q.** And the TGI [44]?
**A.** The TGI was greater than 100 µM.

**Q.** And the TGI [45]?
**A.** The TGI was greater than 100 µM.

**Q.** And the TGI [46]?
**A.** Its TGI is greater than 100 µM.

**Q.** What about the TGI [23] of the same compound?
**A.** The TGI was greater than 100 µM.

**Q.** What about the TGI [24] of the same compound?
**A.** The TGI was greater than 100 µM.

**Q.** What about the TGI [47] of the same compound?
**A.** Its TGI is greater than 100 µM.

**Q.** And the TGI [48]?
**A.** Its TGI is greater than 100 µM.

**Q.** What about the TGI [26] of the same compound?
**A.** Its TGI is greater than 100 µM.
